Measurements from ChEMBL document CHEMBL1201862, “PubChem BioAssay data set” (2004).
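48-hour exposure; five concentrations; linearly interpolated endpoints. GI50 is the concentration that inhibits growth by half.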 The source made the active and inactive calls. Rule as the data show it: active = GI50 up to about 1.1 µM and inactive = higher.

Assays:
Experiment in all cases: growth of human tumour cells (NCI), 48 h
NCI-H23 = system: NCI-H23
U-251 = system: U-251
SN12C = system: SN12C
MDA-MB-231 = system: MDA-MB-231
SK-MEL-2 = system: SK-MEL-2
SF-268 = system: SF-268
RXF 393 = system: RXF 393
SF-295 = system: SF-295
MCF7 = system: MCF7
Hs-578T = system: Hs-578T
KM12 = system: KM12
NCI-H460 = system: NCI-H460
HCT-116 = system: HCT-116
CAKI-1 = system: CAKI-1
SF-539 = system: SF-539
OVCAR-3 = system: OVCAR-3
SNB-75 = system: SNB-75
SK-MEL-28 = system: SK-MEL-28
HT-29 = system: HT-29
HCC 2998 = system: HCC 2998

Compound	GI50 (NCI-H23)	GI50 (U-251)	GI50 (SN12C)	GI50 (MDA-MB-231)	GI50 (SK-MEL-2)	GI50 (SF-268)	GI50 (RXF 393)	GI50 (SF-295)	GI50 (MCF7)	GI50 (Hs-578T)	GI50 (KM12)	GI50 (NCI-H460)	GI50 (HCT-116)	GI50 (CAKI-1)	GI50 (SF-539)	GI50 (OVCAR-3)	GI50 (SNB-75)	GI50 (SK-MEL-28)	GI50 (HT-29)	GI50 (HCC 2998)
c1ccc(C2C3=C(CCCC3)Nc3nnnn32)cc1 (centres undefined)	> 100 µM (inactive)	> 100 µM (inactive)	> 100 µM (inactive)	> 100 µM (inactive)	34.4 µM (inactive)	12.5 µM (inactive)	0.226 µM (active)	57.4 µM (inactive)	13.8 µM (inactive)	64 µM (inactive)	> 100 µM (inactive)	12.9 µM (inactive)	> 100 µM (inactive)	> 100 µM (inactive)	> 100 µM (inactive)	37.8 µM (inactive)				
O=C(CCCn1ccnc1[N+](=O)[O-])NCCn1ccnc1[N+](=O)[O-]	> 100 µM (inactive)	> 100 µM (inactive)	> 100 µM (inactive)		> 100 µM (inactive)	> 100 µM (inactive)		> 100 µM (inactive)	> 100 µM (inactive)	> 100 µM (inactive)	> 100 µM (inactive)	> 100 µM (inactive)	> 100 µM (inactive)	> 100 µM (inactive)	> 100 µM (inactive)	> 100 µM (inactive)	> 100 µM (inactive)	> 100 µM (inactive)	> 100 µM (inactive)	> 100 µM (inactive)
O=C(c1ccccc1)N1CCN(C(=S)NC2CCCCC2)C1=S	15.9 µM (inactive)	9.89 µM (inactive)	17.8 µM (inactive)	7.03 µM (inactive)	4.58 µM (inactive)	16.8 µM (inactive)		20.9 µM (inactive)	22.8 µM (inactive)	19 µM (inactive)	16 µM (inactive)	21.4 µM (inactive)	16.1 µM (inactive)	24 µM (inactive)	13.5 µM (inactive)	15.6 µM (inactive)	11.1 µM (inactive)	14.9 µM (inactive)	20.2 µM (inactive)	16.4 µM (inactive)
CC12CCCC(C(=O)O)(C1)[C@H](C(C)(C)C(=O)O)CC2 (some centres undefined)	> 100 µM (inactive)	> 100 µM (inactive)	> 100 µM (inactive)		> 100 µM (inactive)	> 100 µM (inactive)		> 100 µM (inactive)	> 100 µM (inactive)	> 100 µM (inactive)	> 100 µM (inactive)	> 100 µM (inactive)	> 100 µM (inactive)	> 100 µM (inactive)		> 100 µM (inactive)	> 100 µM (inactive)	> 100 µM (inactive)	> 100 µM (inactive)	
COc1cc2c(cc1C)NC(=O)/C2=C/c1cccnc1	9.86 µM (inactive)	9.55 µM (inactive)			16 µM (inactive)	15.6 µM (inactive)	7.8 µM (inactive)	12.5 µM (inactive)	5.74 µM (inactive)	27.4 µM (inactive)	8.32 µM (inactive)	9.02 µM (inactive)	12.5 µM (inactive)	10.1 µM (inactive)	26.9 µM (inactive)	12.3 µM (inactive)	45 µM (inactive)	45.9 µM (inactive)	17.7 µM (inactive)	2.34 µM (inactive)
Cc1c(O)c(=O)ccn1CCc1ccc(O)cc1	35.7 µM (inactive)	13.9 µM (inactive)		2.2 µM (inactive)		9.51 µM (inactive)		24.3 µM (inactive)	23.9 µM (inactive)	24.3 µM (inactive)	41.3 µM (inactive)	17.1 µM (inactive)	35.7 µM (inactive)	4.52 µM (inactive)	29.4 µM (inactive)	11.2 µM (inactive)		38.4 µM (inactive)	20.4 µM (inactive)	
c1cc(CSP234N5CCN2CCN3CCN4CC5)cc(CSP234N5CCN2CCN3CCN4CC5)c1	41.2 µM (inactive)	21.9 µM (inactive)	58.6 µM (inactive)	14.8 µM (inactive)	19.2 µM (inactive)	29.4 µM (inactive)		14.2 µM (inactive)	25.8 µM (inactive)	21.9 µM (inactive)	19.5 µM (inactive)	26.6 µM (inactive)	> 100 µM (inactive)	> 100 µM (inactive)	22.9 µM (inactive)	32.3 µM (inactive)	20.1 µM (inactive)	18.8 µM (inactive)	19.1 µM (inactive)	19.3 µM (inactive)
NNC(=O)C1(NC(=O)c2ccccc2)C(c2ccccc2)C(c2ccccc2)=NN1c1ccccc1 (centres undefined)	54 µM (inactive)	62.1 µM (inactive)	63.2 µM (inactive)	66.8 µM (inactive)	41.5 µM (inactive)	66.7 µM (inactive)	14.5 µM (inactive)	24.5 µM (inactive)	37.9 µM (inactive)		35.1 µM (inactive)	43.8 µM (inactive)	37 µM (inactive)	15.6 µM (inactive)	44.2 µM (inactive)	18.1 µM (inactive)	30.2 µM (inactive)	90.4 µM (inactive)		57.1 µM (inactive)
CCOC(=O)C1(Cc2ccc3c(c2)CCC3)Cc2cc3c(cc2C1=O)CCC3 (centres undefined)	49.4 µM (inactive)	> 78 µM (inactive)	66.2 µM (inactive)	48.4 µM (inactive)	> 100 µM (inactive)	98.4 µM (inactive)		48.3 µM (inactive)	33.7 µM (inactive)	> 100 µM (inactive)	> 50.9 µM (inactive)	41.9 µM (inactive)	16.7 µM (inactive)	> 46.3 µM (inactive)	> 100 µM (inactive)	> 100 µM (inactive)	53.7 µM (inactive)	> 100 µM (inactive)	31.6 µM (inactive)	62.5 µM (inactive)
COc1ccc(CCn2ccc(=O)c(O)c2C)cc1OC	27.9 µM (inactive)	9.64 µM (inactive)		1.4 µM (inactive)		2.37 µM (inactive)		5.77 µM (inactive)	20.5 µM (inactive)	< 0.01 µM (active)	40.3 µM (inactive)	5.81 µM (inactive)	37.2 µM (inactive)	2.48 µM (inactive)	26.2 µM (inactive)				18.5 µM (inactive)	
COc1cc(-c2ccccc2N)c2cccnc2c1OC	4.94 µM (inactive)	4.21 µM (inactive)	3.93 µM (inactive)	6.22 µM (inactive)	12.9 µM (inactive)	3.1 µM (inactive)	15.2 µM (inactive)	1.54 µM (inactive)	3.84 µM (inactive)	3.05 µM (inactive)	6.07 µM (inactive)	11.1 µM (inactive)	1.36 µM (inactive)	2.63 µM (inactive)	6.41 µM (inactive)	4.38 µM (inactive)		17.9 µM (inactive)	0.74 µM (active)	
COc1ccccc1Cn1[nH]c(=O)c2cc([N+](=O)[O-])ccc21	> 100 µM (inactive)		> 100 µM (inactive)	64.4 µM (inactive)	24.4 µM (inactive)	48.5 µM (inactive)	25.8 µM (inactive)			23.7 µM (inactive)	> 100 µM (inactive)	> 100 µM (inactive)	> 100 µM (inactive)	> 100 µM (inactive)	> 100 µM (inactive)	27.9 µM (inactive)	25.8 µM (inactive)	> 100 µM (inactive)	> 100 µM (inactive)	65.9 µM (inactive)
Fc1ccc(C2NC(=S)NC3=C2CCOc2c3ccc3ccccc23)cc1 (centres undefined)	24.4 µM (inactive)		94.8 µM (inactive)		79.6 µM (inactive)	45.1 µM (inactive)	14.8 µM (inactive)	34.4 µM (inactive)	15.7 µM (inactive)	42.1 µM (inactive)	21.8 µM (inactive)	30.7 µM (inactive)	4.85 µM (inactive)	16.6 µM (inactive)	> 100 µM (inactive)	44.1 µM (inactive)	13.6 µM (inactive)			22.6 µM (inactive)
c1ccc2c(c1)ccc1nc(-c3ccc4c(c3)OCO4)c3c(c12)CCCC3	13.8 µM (inactive)	7.6 µM (inactive)	26.1 µM (inactive)	4.48 µM (inactive)	23.2 µM (inactive)	12.2 µM (inactive)		12.2 µM (inactive)	24.5 µM (inactive)	2.39 µM (inactive)	11.3 µM (inactive)	11.6 µM (inactive)	15.8 µM (inactive)	45.4 µM (inactive)	12.5 µM (inactive)	15.4 µM (inactive)	31.1 µM (inactive)	30.2 µM (inactive)	9.48 µM (inactive)	31.7 µM (inactive)
O=C(O)c1nc2ccc(C(F)(F)F)cc2nc1NCc1ccc(Cl)c(Cl)c1	17.7 µM (inactive)	13.8 µM (inactive)	15.5 µM (inactive)	16.8 µM (inactive)	12.5 µM (inactive)			17.4 µM (inactive)	17.8 µM (inactive)		16.3 µM (inactive)	16 µM (inactive)	16.2 µM (inactive)	19.2 µM (inactive)	19.5 µM (inactive)	7.78 µM (inactive)	20.7 µM (inactive)	17.6 µM (inactive)	15.2 µM (inactive)	16.4 µM (inactive)
COc1ccc(C2Oc3c(cccc3OC)C=C2[N+](=O)[O-])cc1 (centres undefined)	3.08 µM (inactive)	1.86 µM (inactive)	2.02 µM (inactive)	3.3 µM (inactive)		2.69 µM (inactive)	1.4 µM (inactive)	3.83 µM (inactive)	2.18 µM (inactive)	2.58 µM (inactive)	1.92 µM (inactive)	1.81 µM (inactive)	1.28 µM (inactive)	1.58 µM (inactive)		2 µM (inactive)		1.91 µM (inactive)	1.63 µM (inactive)	
